Values after ≈ are worked out from the molar mass of the structure shown.
Tests used:
[1] = Drug metabolism in bile duct cannulated Wistar Han rat assessed as parent compound recovery in urine at 3 mg/kg, iv after 8 hrs by LC-MS/MS analysis; assay type: ADME, organism-based; conditions: read-out: Drug metabolism
[2] = Ratio of drug level in dog blood to plasma; assay type: ADME, cell-free, Canis lupus familiaris; conditions: whole blood
[3] = Dose normalized Cmax in wild type Beagle dog at 2 mg/kg, po or 1 mg/kg, iv after 1 week by LC-MS/MS analysis; assay type: ADME, organism-based, Canis lupus familiaris; conditions: in vivo, 168 h, time 1 weeks
[4] = In vivo inhibition of PRC2 in PBMC collected from human Karpas-422 cells xenografted Athymic NTac:NIH-Whn nude rat assessed as reduction in H3K27me3 level at 30 mg/kg, po, qd for 42 days measured after 4 hrs of last dose by FACS method; assay type: functional; parameters: scale not given: the % may be the effect or the level left; conditions: time 42 day
[5] = In vivo inhibition of PRC2 in PBMC collected from human Karpas-422 cells xenografted Athymic NTac:NIH-Whn nude rat assessed as reduction in H3K27me3 level at 10 mg/kg, po, qd for 42 days measured after 4 hrs of last dose by FACS method; assay type: functional; parameters: scale not given: the % may be the effect or the level left; conditions: time 42 day
[6] = Oral bioavailability in Sprague-Dawley rat at 2 mg/kg; assay type: ADME, organism-based; conditions: in vivo
Cytochrome P450 2D6 = Cytochrome P450 2D6 (Homo sapiens, UniProt P10635); assay: Inhibition of CYP2D6 in human liver microsomes using bufuralol as substrate incubated for 10 mins in presence of NADPH by LC-MS/MS analysis; assay type: ADME, Microsome
[7] = Plasma clearance in mouse assessed as hepatic extraction; assay type: ADME, cell-free; conditions: read-out: ERH
[8] = Plasma protein binding in mouse at 1 uM measured after 6 hrs LC-MS/MS analysis; assay type: ADME, cell-free; conditions: read-out: PPB (converted)
[9] = molecular target: 3',5'-cyclic-AMP phosphodiesterase 4D (Homo sapiens, UniProt Q08499); assay: Inhibition of human Phosphodiesterase 4D
[10] = Volume of distribution at steady state in Sprague-Dawley rat at 2 mg/kg, po or 1 mg/kg, iv after 1 week by LC-MS/MS analysis; assay type: ADME, organism-based; conditions: in vivo, 168 h, time 1 weeks
NIH3T3 = assay: Phototoxicity in mouse 3T3 cells by neutral red uptake assay; assay type: toxicity, cell-based
[11] = Metabolic stability in mouse microsomes assessed as intrinsic clearance; assay type: ADME, Microsome; conditions: read-out: CLH
Cytochrome P450 3A4 = Cytochrome P450 3A4 (Homo sapiens, UniProt P08684); assay: Inhibition of CYP3A4 in human liver microsomes using midazolam as substrate incubated for 10 mins by LC-MS/MS analysis; assay type: ADME, Microsome
[12] = Terminal half life in Sprague-Dawley rat at 2 mg/kg, po or 1 mg/kg, iv after 1 week by LC-MS/MS analysis; assay type: ADME, organism-based; conditions: in vivo, time 1 weeks, read-out: beta t1/2 (converted)
[13] = Toxicity in rat assessed as effect on adrenal gland; conditions: in vivo
[14] = Volume of distribution at steady state ICR (CD-1) mouse at 2 mg/kg, po or 1 mg/kg, iv after 1 week by LC-MS/MS analysis; assay type: ADME, organism-based; conditions: in vivo, 168 h, time 1 weeks
[15] = Metabolic stability in human microsomes assessed as intrinsic clearance; assay type: ADME, Microsome; conditions: read-out: CLH
[16] = molecular target: Voltage-gated inwardly rectifying potassium channel KCNH2 (Homo sapiens, UniProt Q12809); assay: Inhibition of hERG potassium channel in HEK293 cells by manual patch clamp assay; assay type: toxicity, cell-based
[17] = Plasma clearance in rat; assay type: ADME, cell-free
[18] = In vivo inhibition of PRC2 in PBMC collected from human Karpas-422 cells xenografted Athymic NTac:NIH-Whn nude rat assessed as reduction in H3K27me3 level at 3 mg/kg, po, qd for 57 days measured after 4 hrs of last dose by FACS method; assay type: functional; parameters: scale not given: the % may be the effect or the level left; conditions: time 57 day
[19] = molecular target: T1, Alpha-2A adrenergic receptor (Homo sapiens, UniProt P08913); assay: Agonist activity at adrenergic receptor alpha2a (unknown origin); assay type: functional
T1 sequence (P08913 whole entry): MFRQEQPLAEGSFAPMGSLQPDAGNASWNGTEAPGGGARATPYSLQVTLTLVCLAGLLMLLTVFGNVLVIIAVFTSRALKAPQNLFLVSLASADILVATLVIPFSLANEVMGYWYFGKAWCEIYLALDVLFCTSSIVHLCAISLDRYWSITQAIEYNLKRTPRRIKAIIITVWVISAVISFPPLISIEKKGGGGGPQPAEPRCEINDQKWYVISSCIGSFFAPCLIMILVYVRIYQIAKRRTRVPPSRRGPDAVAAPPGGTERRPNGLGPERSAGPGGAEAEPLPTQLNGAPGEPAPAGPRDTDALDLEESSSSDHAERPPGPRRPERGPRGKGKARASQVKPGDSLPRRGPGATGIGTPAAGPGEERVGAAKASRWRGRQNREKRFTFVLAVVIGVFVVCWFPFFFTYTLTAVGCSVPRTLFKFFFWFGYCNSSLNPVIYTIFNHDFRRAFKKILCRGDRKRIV

[20] = Ratio of drug level in rat blood to plasma; assay type: ADME, cell-free
[21] = Lipophilicity, logD of the compound at pH 7.4 by LC with tandem MS analysis; assay type: physicochemical; conditions: buffer
[22] = High throughput solubility of the compound in SGF after 16 to 24 hrs by MS/MS analysis; assay type: physicochemical; conditions: time 16-24 hrs
[23] = In vivo inhibition of PRC2 in PBMC collected from human Karpas-422 cells xenografted Athymic NTac:NIH-Whn nude rat assessed as reduction in H3K27me3 level at 0.3 mg/kg, po, qd for 52 days measured after 4 hrs of last dose by FACS method; assay type: functional; parameters: scale not given: the % may be the effect or the level left; conditions: time 52 day
[24] = Permeability across basolateral to apical side in human Caco-2 cells incubated for 2 hrs by LC/MS/MS analysis; assay type: ADME, cell-based; conditions: read-out: permeability
[25] = Terminal half life in ICR (CD-1) mouse at 2 mg/kg, po or 1 mg/kg, iv after 1 week by LC-MS/MS analysis; assay type: ADME, organism-based; conditions: in vivo, time 1 weeks, read-out: beta t1/2 (converted)
[26] = Oral biovailability in Beagle dog at 2 mg/kg, po; assay type: ADME, organism-based, Canis lupus familiaris; conditions: in vivo
[27] = Plasma protein binding in human at 1 uM measured after 6 hrs LC-MS/MS analysis; assay type: ADME, cell-free; conditions: read-out: PPB (converted)
Cytochrome P450 2C9 = Cytochrome P450 2C9 (Homo sapiens, UniProt P11712); assay: Inhibition of CYP2C9 human liver microsomes using diclofenac as substrate incubated for 15 mins by LC-MS/MS analysis; assay type: ADME, Microsome
[28] = High throughput solubility of the compound at pH 1 after 16 to 24 hrs by MS/MS analysis; assay type: physicochemical; conditions: buffer, time 16-24 hrs
[29] = Toxicity in Athymic NTac:NIH-Whn nude rat xenografted with human Karpas-422 cells assessed as reduction in body weight at 0.3 to 30 mg/kg, po, qd measured upto 140 days; assay type: organism-based; conditions: in vivo, 3360 h, dose 0.3-30 mg/kg, time < 140 day
[30] = Oral biovailability in ICR (CD-1) mouse at 2 mg/kg, po; assay type: ADME, organism-based; conditions: in vivo
[31] = Dose normalized AUC in wild type Beagle dog at 2 mg/kg, po or 1 mg/kg, iv after 1 week by LC-MS/MS analysis; assay type: ADME, organism-based, Canis lupus familiaris; conditions: in vivo, 168 h, time 1 weeks
[32] = Terminal half life in wild type Beagle dog at 2 mg/kg, po or 1 mg/kg, iv after 1 week by LC-MS/MS analysis; assay type: ADME, organism-based, Canis lupus familiaris; conditions: in vivo, time 1 weeks, read-out: beta t1/2 (converted)

Chain of Voltage-gated inwardly rectifying potassium channel KCNH2 (Q12809 whole entry): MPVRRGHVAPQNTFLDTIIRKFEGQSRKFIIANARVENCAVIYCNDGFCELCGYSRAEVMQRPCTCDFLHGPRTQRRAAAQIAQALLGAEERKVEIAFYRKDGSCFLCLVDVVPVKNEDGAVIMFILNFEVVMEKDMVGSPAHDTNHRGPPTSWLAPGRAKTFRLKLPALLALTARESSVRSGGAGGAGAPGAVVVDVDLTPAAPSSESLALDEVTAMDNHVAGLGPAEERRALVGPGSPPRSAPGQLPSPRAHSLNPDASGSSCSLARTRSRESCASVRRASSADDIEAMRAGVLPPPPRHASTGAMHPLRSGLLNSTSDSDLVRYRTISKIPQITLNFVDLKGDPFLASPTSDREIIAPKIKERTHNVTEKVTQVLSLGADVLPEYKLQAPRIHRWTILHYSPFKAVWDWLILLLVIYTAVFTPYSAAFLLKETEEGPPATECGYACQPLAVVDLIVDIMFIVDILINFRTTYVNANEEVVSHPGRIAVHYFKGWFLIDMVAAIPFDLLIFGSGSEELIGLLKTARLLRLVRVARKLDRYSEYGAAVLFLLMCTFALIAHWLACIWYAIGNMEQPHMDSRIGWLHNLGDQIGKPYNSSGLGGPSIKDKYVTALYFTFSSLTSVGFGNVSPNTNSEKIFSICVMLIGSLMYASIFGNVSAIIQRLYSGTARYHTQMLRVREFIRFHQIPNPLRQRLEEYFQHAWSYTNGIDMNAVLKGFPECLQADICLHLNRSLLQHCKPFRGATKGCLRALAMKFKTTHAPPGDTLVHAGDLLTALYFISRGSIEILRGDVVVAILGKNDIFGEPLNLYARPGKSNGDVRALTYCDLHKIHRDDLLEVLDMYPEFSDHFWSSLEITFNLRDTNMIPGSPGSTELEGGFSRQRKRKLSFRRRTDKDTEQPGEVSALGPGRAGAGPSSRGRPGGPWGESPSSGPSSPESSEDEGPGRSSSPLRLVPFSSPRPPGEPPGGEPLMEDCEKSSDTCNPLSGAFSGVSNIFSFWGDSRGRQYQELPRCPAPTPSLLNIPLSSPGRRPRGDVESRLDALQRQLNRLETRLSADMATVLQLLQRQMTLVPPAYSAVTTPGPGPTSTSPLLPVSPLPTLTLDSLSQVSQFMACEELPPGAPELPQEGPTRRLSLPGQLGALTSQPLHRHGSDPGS
Chain of 3',5'-cyclic-AMP phosphodiesterase 4D (Q08499 whole entry): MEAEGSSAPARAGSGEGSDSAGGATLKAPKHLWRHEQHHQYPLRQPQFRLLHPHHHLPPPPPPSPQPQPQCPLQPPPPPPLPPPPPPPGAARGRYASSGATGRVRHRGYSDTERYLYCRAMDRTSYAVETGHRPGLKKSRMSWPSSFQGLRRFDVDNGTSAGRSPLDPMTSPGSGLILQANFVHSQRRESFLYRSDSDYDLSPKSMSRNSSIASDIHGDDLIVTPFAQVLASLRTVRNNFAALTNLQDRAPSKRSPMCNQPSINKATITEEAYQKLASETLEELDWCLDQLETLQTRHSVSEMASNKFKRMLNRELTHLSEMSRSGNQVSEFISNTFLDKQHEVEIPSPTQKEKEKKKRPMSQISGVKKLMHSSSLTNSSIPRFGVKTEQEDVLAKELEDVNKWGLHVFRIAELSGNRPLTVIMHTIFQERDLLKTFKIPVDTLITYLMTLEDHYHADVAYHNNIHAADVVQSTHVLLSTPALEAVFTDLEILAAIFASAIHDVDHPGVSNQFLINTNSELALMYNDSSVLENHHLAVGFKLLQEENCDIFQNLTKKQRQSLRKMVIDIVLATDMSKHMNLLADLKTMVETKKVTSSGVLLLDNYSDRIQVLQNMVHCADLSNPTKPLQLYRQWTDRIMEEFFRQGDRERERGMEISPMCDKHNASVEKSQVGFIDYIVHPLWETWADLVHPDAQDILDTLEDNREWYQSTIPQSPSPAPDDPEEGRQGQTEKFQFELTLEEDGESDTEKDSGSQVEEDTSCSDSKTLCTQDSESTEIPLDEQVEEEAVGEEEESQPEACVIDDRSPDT
Chain of Cytochrome P450 3A4 (P08684 whole entry): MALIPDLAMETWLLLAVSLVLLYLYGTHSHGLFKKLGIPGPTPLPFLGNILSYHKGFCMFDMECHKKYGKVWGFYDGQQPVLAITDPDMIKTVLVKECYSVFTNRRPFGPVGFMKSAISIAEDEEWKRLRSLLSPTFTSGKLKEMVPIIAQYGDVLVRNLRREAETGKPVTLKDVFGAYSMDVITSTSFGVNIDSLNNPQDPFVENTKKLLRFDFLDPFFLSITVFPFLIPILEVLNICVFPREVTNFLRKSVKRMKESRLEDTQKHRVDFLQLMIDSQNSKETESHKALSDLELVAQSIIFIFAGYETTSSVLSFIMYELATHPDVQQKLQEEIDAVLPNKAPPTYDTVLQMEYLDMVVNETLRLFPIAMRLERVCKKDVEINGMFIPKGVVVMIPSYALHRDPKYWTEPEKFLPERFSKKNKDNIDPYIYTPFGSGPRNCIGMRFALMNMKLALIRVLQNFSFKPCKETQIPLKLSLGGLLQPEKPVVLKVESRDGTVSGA
Chain of Cytochrome P450 2D6 (P10635 whole entry): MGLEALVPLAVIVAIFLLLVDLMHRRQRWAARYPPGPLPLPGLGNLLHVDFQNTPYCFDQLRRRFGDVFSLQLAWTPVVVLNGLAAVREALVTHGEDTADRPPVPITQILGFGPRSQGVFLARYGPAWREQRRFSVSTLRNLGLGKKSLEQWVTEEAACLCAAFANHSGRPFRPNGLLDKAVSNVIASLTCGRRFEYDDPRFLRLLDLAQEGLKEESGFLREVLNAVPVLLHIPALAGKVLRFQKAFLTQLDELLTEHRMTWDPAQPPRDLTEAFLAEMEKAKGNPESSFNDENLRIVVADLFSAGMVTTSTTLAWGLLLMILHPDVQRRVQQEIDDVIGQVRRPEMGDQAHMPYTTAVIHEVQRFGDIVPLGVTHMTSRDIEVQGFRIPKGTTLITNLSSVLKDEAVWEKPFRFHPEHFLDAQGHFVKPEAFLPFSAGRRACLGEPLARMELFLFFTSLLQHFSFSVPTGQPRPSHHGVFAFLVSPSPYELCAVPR
Chain of Cytochrome P450 2C9 (P11712 whole entry): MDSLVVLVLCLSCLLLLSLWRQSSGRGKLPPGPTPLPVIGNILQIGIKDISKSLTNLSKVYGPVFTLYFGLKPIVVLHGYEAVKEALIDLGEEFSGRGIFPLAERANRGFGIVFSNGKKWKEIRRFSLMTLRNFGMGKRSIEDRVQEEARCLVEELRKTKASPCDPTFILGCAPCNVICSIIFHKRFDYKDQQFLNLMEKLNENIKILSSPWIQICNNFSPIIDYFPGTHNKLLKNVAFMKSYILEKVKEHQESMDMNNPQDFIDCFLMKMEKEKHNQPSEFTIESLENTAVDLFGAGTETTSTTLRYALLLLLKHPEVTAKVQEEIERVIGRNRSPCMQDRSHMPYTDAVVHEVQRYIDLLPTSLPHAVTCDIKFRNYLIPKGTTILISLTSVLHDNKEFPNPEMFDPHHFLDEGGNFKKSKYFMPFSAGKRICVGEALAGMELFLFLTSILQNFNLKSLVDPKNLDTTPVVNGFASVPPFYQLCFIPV

dose excreted at 8 h [1]: 0.5%
blood plasma ratio [2]: 0.72
Cmax/dose [3]: 400 nM
bioavailability [6]: 69%
IC50 (Cytochrome P450 2D6): > 20 µM
hepatic extraction ratio [7]: 0.42
fraction unbound at 6 h, 1 µM [8]: 0.15
IC50 [9]: 6.4 µM
Vdss [10]: 2 L/kg
microsomal CLint [11]: 22 µL/min/mg
IC50 (Cytochrome P450 3A4): > 18 µM
half-life [12]: 3.2 h
Vdss [14]: 3.5 L/kg
microsomal CLint [15]: 33 µL/min/mg
clearance [17]: 10 mL/min/kg
IC50 [19]: 9.6 µM
blood plasma ratio [20]: 0.98
logD [21]: 3.88
solubility [22]: 8.74 mM (≈ 3290 µg/mL)
Papp B→A at 2 h [24]: 37 ×10⁻⁶ cm/s
half-life [25]: 1.5 h
bioavailability [26]: 73%
fraction unbound at 6 h, 1 µM [27]: 0.08
IC50 (Cytochrome P450 2C9): > 18 µM
solubility [28]: > 13 mM
bioavailability [30]: 77%
AUC/dose [31]: 2093 nM·h
half-life [32]: 1.2 h
SMILES: Cc1ncccc1-c1cnc(NCc2c(F)ccc3c2CCO3)n2cnnc12
Activity [4]: 93%
Activity [5]: 97%
Activity (NIH3T3): Non-Toxic
Activity [13]: Non-Toxic
IC50 [16]: > 30 µM
Activity [18]: 80%
Activity [23]: 20%
Activity [29]: Non-Toxic

— ChEMBL document CHEMBL5154826, “Discovery of the Clinical Candidate MAK683: An EED-Directed, Allosteric, and Selective PRC2 Inhibitor for the Treatment of Advanced Malignancies” (J Med Chem, 2022)
